ChEMBL document CHEMBL1143411, “Concentration-effect relationship of ceftazidime explains why the time above the MIC is 40 percent for a static effect in vivo” (Antimicrob Agents Chemother, 2007)
≈ marks a conversion by molar mass, not a printed value.

How the values were obtained:
[1] = Volume of distribution in human; type: ADME, organism-based; details: in vivo, read-out: Vc
Pseudomonas aeruginosa [2] = assay: Antibacterial activity against Pseudomonas aeruginosa ATCC 27853 assessed as bacterial growth rate by time-kill study; type: functional
Mus musculus [3] = assay: %fT>MIC in mouse at 4.60 mg/kg administered every 3 hrs; type: ADME, organism-based; set-up: dose 4.6 mg/kg; details: in vivo, 4.6 mg/kg
Pseudomonas aeruginosa [4] = assay: Antibacterial activity against Pseudomonas aeruginosa ATCC 27853 by microdilution method; type: functional, organism-based
Mus musculus [5] = assay: %fT>MIC in mouse at 2.12 mg/kg administered every 2 hrs; type: ADME, organism-based; set-up: dose 2.12 mg/kg; details: in vivo
Pseudomonas aeruginosa [6] = assay: Antibacterial activity against Pseudomonas aeruginosa ATCC 27853 assessed as maximum bacterial kill rate by time-kill study; type: functional
[7] = Elimination rate constant in mouse; type: ADME, organism-based; details: in vivo
Mus musculus [8] = assay: %fT>MIC in mouse at 9.29 mg/kg administered every 4 hrs; type: ADME, organism-based; set-up: dose 9.29 mg/kg; details: in vivo
Homo sapiens [9] = assay: %fT>MIC in human at 38.9 mg/kg administered every 6 hrs; type: ADME, organism-based; set-up: dose 38.9 mg/kg; details: in vivo
[10] = Elimination rate constant in human; type: ADME, organism-based; details: in vivo
Mus musculus [11] = assay: %fT>MIC in mouse at 35.6 mg/kg administered every 6 hrs; type: ADME, organism-based; set-up: dose 35.6 mg/kg; details: in vivo
[12] = Volume of distribution in mouse; type: ADME, organism-based; details: in vivo, read-out: Vc
Homo sapiens [13] = assay: %fT>MIC in human at 20.2 mg/kg administered every 4 hrs; type: ADME, organism-based; set-up: dose 20.2 mg/kg; details: in vivo
Homo sapiens [14] = assay: %fT>MIC in human at 59.8 mg/kg administered every 8 hrs; type: ADME, organism-based; set-up: dose 59.8 mg/kg; details: in vivo
Mus musculus [15] = assay: %fT>MIC in mouse at 129.7 mg/kg administered every 8 hrs; type: ADME, organism-based; set-up: dose 129.7 mg/kg; details: in vivo
Homo sapiens [16] = assay: %fT>MIC in human at 121 mg/kg administered every 12 hrs; type: ADME, organism-based; set-up: dose 121 mg/kg; details: in vivo

Which Vd [1] does the source give for CC(C)(O/N=C(\C(=O)N[C@@H]1C(=O)N2C(C(=O)[O-])=C(C[n+]3ccccc3)CS[C@H]12)c1csc(N)n1)C(=O)O [CEFTAZIDIME] here?
The Vd was 1.4 L.

And the Activity (Pseudomonas aeruginosa [2])?
The Activity was -1.41 h⁻¹.

And the “fT>MIC” value (Mus musculus [3])?
Its value is 38.1%.

And the EC50 (Pseudomonas aeruginosa [4])?
Its EC50 is 1.22 µg/mL (≈ 2.23 µM).

And the “fT>MIC” value (Mus musculus [5])?
The value was 37.3%.

And the Activity (Pseudomonas aeruginosa [6])?
Its Activity is 4.15 h⁻¹.

What about the k el [7] of the same molecule?
Its k el is 0.000544 s⁻¹.

And the “fT>MIC” value (Mus musculus [8])?
Its value is 37.6%.

And the “fT>MIC” value (Homo sapiens [9])?
Its value is 36.3%.

And the k el [10]?
Its k el is 0.000128 s⁻¹.

And the “fT>MIC” value (Mus musculus [11])?
The value was 36.5%.

And the Vd [12]?
The Vd was 0.5 L/kg.

And the “fT>MIC” value (Homo sapiens [13])?
Its value is 23.7%.

What about the “fT>MIC” value (Homo sapiens [14]) of the same molecule?
Its value is 37.9%.

And the “fT>MIC” value (Mus musculus [15])?
The value was 35.7%.

And the “fT>MIC” value (Homo sapiens [16])?
Its value is 37.7%.
